Measured values from paper PMC7265341, “Quantifying CDK inhibitor selectivity in live cells” (Nature Communications, 2020).
Like-named read-outs stand apart in the source and are kept apart here.

Assays:
CDK11B/Cyclin L2 = CDK11B/Cyclin L2 (Homo sapiens, UniProt P21127); assay: NanoBRET live-cell target engagement, CDK11B-NanoLuc/Cyclin L2 in HEK-293; assay type: binding; conditions: read-out: CDK11b/L2 IC50
CDK12/Cyclin K = CDK12/Cyclin K (Homo sapiens, UniProt Q9NYV4); assay: NanoBRET live-cell target engagement, CDK12-NanoLuc/Cyclin K in HEK-293; assay type: binding; conditions: for inhibition at 10 µM: read-out: CDK12/K Inhibition at 10µM (%); for IC50: read-out: CDK12/K IC50
CDK12/Cyclin K, sequence (Q9NYV4 1-1481 isoform Q9NYV4-2): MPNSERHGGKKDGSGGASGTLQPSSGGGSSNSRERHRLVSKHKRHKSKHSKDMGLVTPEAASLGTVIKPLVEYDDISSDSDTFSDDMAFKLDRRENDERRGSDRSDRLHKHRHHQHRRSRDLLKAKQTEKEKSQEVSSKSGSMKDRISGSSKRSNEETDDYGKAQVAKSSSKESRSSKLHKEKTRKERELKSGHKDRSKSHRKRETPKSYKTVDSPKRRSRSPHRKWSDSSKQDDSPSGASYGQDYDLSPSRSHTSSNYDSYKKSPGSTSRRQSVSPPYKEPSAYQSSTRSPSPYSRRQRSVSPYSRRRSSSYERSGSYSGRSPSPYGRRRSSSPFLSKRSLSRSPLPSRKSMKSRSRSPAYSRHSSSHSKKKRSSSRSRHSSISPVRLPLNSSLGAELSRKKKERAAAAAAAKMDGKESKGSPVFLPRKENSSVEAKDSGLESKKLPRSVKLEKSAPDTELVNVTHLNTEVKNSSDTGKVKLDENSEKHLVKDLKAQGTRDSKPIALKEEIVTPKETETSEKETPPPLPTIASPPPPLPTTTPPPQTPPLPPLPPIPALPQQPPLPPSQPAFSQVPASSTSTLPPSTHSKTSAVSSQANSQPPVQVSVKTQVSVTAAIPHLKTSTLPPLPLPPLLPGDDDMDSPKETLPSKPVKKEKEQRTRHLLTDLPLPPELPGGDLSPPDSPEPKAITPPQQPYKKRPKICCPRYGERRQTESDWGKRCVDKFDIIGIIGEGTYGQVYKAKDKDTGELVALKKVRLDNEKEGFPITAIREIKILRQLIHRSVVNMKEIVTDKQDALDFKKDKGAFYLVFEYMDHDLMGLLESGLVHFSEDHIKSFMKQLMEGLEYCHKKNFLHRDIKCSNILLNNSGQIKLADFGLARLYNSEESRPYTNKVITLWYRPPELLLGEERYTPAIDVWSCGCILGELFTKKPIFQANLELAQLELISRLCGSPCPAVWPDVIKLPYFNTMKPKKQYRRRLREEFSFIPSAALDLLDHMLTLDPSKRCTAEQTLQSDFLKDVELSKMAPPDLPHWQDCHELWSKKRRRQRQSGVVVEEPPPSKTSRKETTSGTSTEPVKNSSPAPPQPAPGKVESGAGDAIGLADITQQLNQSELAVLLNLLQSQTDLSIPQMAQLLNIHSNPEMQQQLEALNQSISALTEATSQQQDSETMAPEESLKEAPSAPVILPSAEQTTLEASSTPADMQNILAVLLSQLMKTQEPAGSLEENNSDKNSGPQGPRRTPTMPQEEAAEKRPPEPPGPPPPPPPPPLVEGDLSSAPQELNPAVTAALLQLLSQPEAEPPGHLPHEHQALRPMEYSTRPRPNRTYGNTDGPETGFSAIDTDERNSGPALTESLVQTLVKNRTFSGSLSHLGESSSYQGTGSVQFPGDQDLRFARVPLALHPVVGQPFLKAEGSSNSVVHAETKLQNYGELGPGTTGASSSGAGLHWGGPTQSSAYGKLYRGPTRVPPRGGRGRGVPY
CDK12/Cyclin K, sequence (O75909 whole entry partner): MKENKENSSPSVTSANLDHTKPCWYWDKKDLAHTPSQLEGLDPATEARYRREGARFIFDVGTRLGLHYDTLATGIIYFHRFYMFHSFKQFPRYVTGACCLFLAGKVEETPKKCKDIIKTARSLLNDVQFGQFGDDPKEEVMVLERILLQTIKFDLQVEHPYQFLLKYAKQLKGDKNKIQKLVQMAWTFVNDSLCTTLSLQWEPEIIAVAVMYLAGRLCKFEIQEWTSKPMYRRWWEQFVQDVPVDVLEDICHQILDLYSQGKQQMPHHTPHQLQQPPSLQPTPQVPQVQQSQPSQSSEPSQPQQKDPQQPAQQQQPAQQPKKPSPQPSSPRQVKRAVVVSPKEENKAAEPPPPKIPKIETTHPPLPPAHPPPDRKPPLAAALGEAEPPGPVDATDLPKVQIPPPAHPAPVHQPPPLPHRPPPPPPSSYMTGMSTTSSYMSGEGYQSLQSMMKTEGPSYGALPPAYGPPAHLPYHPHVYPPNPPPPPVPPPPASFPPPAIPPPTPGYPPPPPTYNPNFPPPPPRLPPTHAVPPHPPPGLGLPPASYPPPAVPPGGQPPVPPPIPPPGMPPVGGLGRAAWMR

CDK13/Cyclin K = CDK13/Cyclin K (Homo sapiens, UniProt Q14004); assay: NanoBRET live-cell target engagement, CDK13-NanoLuc/Cyclin K in HEK-293; assay type: binding; conditions: 10µM, read-out: CDK13/K Inhibition at 10µM (%)
CDK14/Cyclin Y = CDK14/Cyclin Y (Homo sapiens, UniProt O94921); assay: NanoBRET live-cell target engagement, CDK14-NanoLuc/Cyclin Y in HEK-293; assay type: binding; conditions: for inhibition at 10 µM: read-out: CDK14/Y Inhibition at 10µM (%)
CDK14/Cyclin Y, sequence (O94921 whole entry): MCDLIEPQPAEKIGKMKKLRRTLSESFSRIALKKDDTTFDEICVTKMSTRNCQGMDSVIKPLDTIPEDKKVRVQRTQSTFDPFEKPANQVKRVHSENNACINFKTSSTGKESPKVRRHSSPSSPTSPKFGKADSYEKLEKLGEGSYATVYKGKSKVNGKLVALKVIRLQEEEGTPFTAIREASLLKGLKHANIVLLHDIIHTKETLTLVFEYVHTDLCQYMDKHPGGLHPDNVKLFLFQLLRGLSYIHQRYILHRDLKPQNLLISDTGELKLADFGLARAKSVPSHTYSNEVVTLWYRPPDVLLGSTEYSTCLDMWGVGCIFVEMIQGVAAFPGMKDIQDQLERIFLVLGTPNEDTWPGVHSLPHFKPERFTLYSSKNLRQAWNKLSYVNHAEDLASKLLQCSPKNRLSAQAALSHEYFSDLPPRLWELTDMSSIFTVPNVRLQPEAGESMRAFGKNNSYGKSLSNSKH
CDK14/Cyclin Y, sequence (Q8ND76 whole entry partner): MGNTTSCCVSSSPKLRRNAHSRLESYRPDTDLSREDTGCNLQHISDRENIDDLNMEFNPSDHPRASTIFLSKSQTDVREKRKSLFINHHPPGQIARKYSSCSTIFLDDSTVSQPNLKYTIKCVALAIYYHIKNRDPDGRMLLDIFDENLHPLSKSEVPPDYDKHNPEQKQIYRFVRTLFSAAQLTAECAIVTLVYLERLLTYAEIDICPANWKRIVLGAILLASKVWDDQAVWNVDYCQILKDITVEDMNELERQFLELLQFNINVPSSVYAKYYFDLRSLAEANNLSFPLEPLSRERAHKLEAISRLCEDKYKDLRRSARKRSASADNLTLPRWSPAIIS

CDK15/Cyclin Y = CDK15/Cyclin Y (Homo sapiens, UniProt Q96Q40); assay: NanoBRET live-cell target engagement, NanoLuc-CDK15/Cyclin Y in HEK-293; assay type: binding; conditions: for inhibition at 10 µM: read-out: CDK15/Y Inhibition at 10µM (%); for IC50: read-out: CDK15/Y IC50
CDK16/Cyclin Y = CDK16/Cyclin Y (Homo sapiens, UniProt Q00536); assay: NanoBRET live-cell target engagement, CDK16-NanoLuc/Cyclin Y in HEK-293; assay type: binding; conditions: 10µM, read-out: CDK16/Y Inhibition at 10µM (%)
CDK17/Cyclin Y = CDK17/Cyclin Y (Homo sapiens, UniProt Q00537); assay: NanoBRET live-cell target engagement, CDK17-NanoLuc/Cyclin Y in HEK-293; assay type: binding; conditions: for inhibition at 10 µM: read-out: CDK17/Y Inhibition at 10µM (%); for IC50: read-out: CDK17/Y IC50
CDK18/Cyclin Y = CDK18/Cyclin Y (Homo sapiens, UniProt Q07002); assay: NanoBRET live-cell target engagement, CDK18-NanoLuc/Cyclin Y in HEK-293; assay type: binding; conditions: for inhibition at 10 µM: read-out: CDK18/Y Inhibition at 10µM (%); for IC50: read-out: CDK18/Y IC50
CDK20/Cyclin H = CDK20/Cyclin H (Homo sapiens, UniProt Q8IZL9); assay: NanoBRET live-cell target engagement, NanoLuc-CDK20/Cyclin H in HEK-293; assay type: binding; conditions: 10µM, read-out: CDK20/H Inhibition at 10µM (%)
CDK19/Cyclin C = CDK19/Cyclin C (Homo sapiens, UniProt Q9BWU1); assay: NanoBRET live-cell target engagement, NanoLuc-CDK19/Cyclin C in HEK-293; conditions: read-out: CDK19/C Inhibition at 10µM (%), 10µM
CDK19/Cyclin C, sequence (Q9BWU1 whole entry): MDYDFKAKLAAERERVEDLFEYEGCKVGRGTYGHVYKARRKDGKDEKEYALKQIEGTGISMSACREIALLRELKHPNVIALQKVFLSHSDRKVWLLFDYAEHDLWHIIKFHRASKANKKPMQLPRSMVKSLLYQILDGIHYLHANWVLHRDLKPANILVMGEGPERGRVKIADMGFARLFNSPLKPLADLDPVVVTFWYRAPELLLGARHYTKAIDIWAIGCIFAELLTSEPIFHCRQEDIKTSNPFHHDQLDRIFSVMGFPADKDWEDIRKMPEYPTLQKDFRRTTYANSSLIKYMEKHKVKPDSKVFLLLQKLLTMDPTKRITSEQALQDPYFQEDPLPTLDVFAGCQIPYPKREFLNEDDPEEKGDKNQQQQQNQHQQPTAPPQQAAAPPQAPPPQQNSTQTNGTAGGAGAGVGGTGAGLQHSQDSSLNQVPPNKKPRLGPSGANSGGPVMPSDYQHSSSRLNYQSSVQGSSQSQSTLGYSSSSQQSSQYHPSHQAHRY
CDK19/Cyclin C, sequence (P24863 whole entry partner): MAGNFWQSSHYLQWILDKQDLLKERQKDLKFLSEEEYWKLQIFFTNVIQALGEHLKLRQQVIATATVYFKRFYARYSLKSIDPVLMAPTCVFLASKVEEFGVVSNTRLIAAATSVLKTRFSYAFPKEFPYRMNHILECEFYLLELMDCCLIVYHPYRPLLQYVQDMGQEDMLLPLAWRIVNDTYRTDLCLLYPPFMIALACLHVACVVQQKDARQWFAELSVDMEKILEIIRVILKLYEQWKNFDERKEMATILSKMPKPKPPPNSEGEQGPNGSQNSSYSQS

CDK10/Cyclin L2 = CDK10/Cyclin L2 (Homo sapiens, UniProt Q15131); assay: NanoBRET live-cell target engagement, CDK10-NanoLuc/Cyclin L2 in HEK-293; conditions: for inhibition at 10 µM: read-out: CDK10/L2 Inhibition at 10µM (%), 10µM
CDK10/Cyclin L2, sequence (Q15131 whole entry): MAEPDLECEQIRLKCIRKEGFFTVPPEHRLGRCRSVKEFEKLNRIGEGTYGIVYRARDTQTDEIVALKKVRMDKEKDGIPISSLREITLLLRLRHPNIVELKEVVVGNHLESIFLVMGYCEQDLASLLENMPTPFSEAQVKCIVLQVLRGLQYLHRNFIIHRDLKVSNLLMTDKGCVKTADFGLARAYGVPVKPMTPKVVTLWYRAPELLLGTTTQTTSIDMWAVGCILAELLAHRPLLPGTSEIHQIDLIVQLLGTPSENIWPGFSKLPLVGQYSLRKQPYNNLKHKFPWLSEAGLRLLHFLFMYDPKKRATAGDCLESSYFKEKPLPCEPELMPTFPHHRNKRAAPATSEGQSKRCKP

CDK11B/Cyclin L2, sequence (P21127 1-782 isoform P21127-2): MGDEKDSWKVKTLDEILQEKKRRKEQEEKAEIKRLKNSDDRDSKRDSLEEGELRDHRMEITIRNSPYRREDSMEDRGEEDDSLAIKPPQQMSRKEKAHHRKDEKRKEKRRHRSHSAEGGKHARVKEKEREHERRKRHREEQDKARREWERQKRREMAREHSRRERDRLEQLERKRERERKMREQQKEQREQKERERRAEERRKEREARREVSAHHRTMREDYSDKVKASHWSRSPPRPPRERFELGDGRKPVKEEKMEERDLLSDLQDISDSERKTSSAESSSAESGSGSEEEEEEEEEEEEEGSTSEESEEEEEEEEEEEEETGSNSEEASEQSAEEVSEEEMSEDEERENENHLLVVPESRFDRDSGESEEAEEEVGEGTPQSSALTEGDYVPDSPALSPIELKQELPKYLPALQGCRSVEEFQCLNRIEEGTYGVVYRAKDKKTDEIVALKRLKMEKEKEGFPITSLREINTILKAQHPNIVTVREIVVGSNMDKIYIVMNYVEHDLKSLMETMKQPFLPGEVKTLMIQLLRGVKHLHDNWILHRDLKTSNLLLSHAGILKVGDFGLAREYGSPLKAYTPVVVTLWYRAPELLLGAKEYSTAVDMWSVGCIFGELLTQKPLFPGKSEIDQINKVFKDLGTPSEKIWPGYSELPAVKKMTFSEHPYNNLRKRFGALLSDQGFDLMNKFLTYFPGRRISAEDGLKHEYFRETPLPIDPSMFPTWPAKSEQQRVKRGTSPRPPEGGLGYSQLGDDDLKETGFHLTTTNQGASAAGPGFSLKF

Compound `CN1C/C=C/CCOc2cccc(c2)-c2ccnc(n2)Nc2cccc(c2)C1` [SB1317] has an IC50 (CDK11B/Cyclin L2; average (± SEM where n=3)) of 51 nM, an IC50 (CDK11B/Cyclin L2; independent experiment 1) of 49 nM and an IC50 (CDK11B/Cyclin L2; independent experiment 2) of 54 nM. For the same compound, the inhibition at 10 µM (CDK12/Cyclin K; average of experiments) was 60.9%, the inhibition at 10 µM (CDK12/Cyclin K; independent experiment 1) was 45.8% and the inhibition at 10 µM (CDK12/Cyclin K; independent experiment 2) was 76%. For the same compound, the IC50 (CDK12/Cyclin K; average (n=2)) was 680 nM, the IC50 (CDK12/Cyclin K; independent experiment 1) was 610 nM and the IC50 (CDK12/Cyclin K; independent experiment 2) was 750 nM. The inhibition at 10 µM (CDK13/Cyclin K; average of experiments) was 63.7%, the inhibition at 10 µM (CDK13/Cyclin K; independent experiment 1) was 47.7% and the inhibition at 10 µM (CDK13/Cyclin K; independent experiment 2) was 79.6%. The inhibition at 10 µM (CDK14/Cyclin Y; average of experiments) was 97.2%, the inhibition at 10 µM (CDK14/Cyclin Y; independent experiment 1) was 96% and the inhibition at 10 µM (CDK14/Cyclin Y; independent experiment 2) was 98.5%. The IC50 (CDK14/Cyclin Y; average (± SEM where n=3), read-out: CDK14/Y IC50) was 29 nM, the IC50 (CDK14/Cyclin Y; independent experiment 1, read-out: CDK14/Y IC50) was 28 nM and the IC50 (CDK14/Cyclin Y; independent experiment 2, read-out: CDK14/Y IC50) was 29 nM. The IC50 (CDK14/Cyclin Y; live HEK-293, 2 h, mean ± S.E.M. (n=3) or mean (n=2), read-out: IC50 for CDK/cyclin complexes, CDK14/Y) was 29 nM, the inhibition at 10 µM (CDK15/Cyclin Y; average of experiments) was 98.1% and the inhibition at 10 µM (CDK15/Cyclin Y; independent experiment 1) was 97.4%. The inhibition at 10 µM (CDK15/Cyclin Y; independent experiment 2) was 98.7%, the IC50 (CDK15/Cyclin Y; average (± SEM where n=3)) was 58 nM and the IC50 (CDK15/Cyclin Y; independent experiment 1) was 55 nM. It also gave an IC50 (CDK15/Cyclin Y; independent experiment 2) of 61 nM, an inhibition at 10 µM (CDK16/Cyclin Y; independent experiment 1) of 96.3% and an inhibition at 10 µM (CDK16/Cyclin Y; independent experiment 2) of 92.9%. It also gave an inhibition at 10 µM (CDK17/Cyclin Y; average of experiments) of 94.8%, an inhibition at 10 µM (CDK17/Cyclin Y; independent experiment 1) of 96.6% and an inhibition at 10 µM (CDK17/Cyclin Y; independent experiment 2) of 93.1%. The IC50 (CDK17/Cyclin Y; average (± SEM where n=3)) was 49 nM, the IC50 (CDK17/Cyclin Y; independent experiment 1) was 50 nM and the IC50 (CDK17/Cyclin Y; independent experiment 2) was 47 nM. For the same compound, the inhibition at 10 µM (CDK18/Cyclin Y; average of experiments) was 101%, the inhibition at 10 µM (CDK18/Cyclin Y; independent experiment 1) was 98.4% and the inhibition at 10 µM (CDK18/Cyclin Y; independent experiment 2) was 103%. For the same compound, the IC50 (CDK18/Cyclin Y; average (± SEM where n=3)) was 82 nM, the IC50 (CDK18/Cyclin Y; independent experiment 1) was 99 nM and the IC50 (CDK18/Cyclin Y; independent experiment 2) was 65 nM. For the same compound, the inhibition at 10 µM (CDK20/Cyclin H; independent experiment 1) was 79.2%, the inhibition at 10 µM (CDK20/Cyclin H; independent experiment 2) was 82.8% and the inhibition at 10 µM (CDK19/Cyclin C; average of experiments) was 74.8%. It also gave an inhibition at 10 µM (CDK19/Cyclin C; independent experiment 1) of 62.1%, an inhibition at 10 µM (CDK19/Cyclin C; independent experiment 2) of 87.4% and an IC50 (CDK10/Cyclin L2; CDK10/L2 IC50 (nM), average (± SEM where n=3)) of 520 nM. For the same compound, the IC50 (CDK10/Cyclin L2; CDK10/L2 IC50 (nM), independent experiment 1) was 530 nM, the IC50 (CDK10/Cyclin L2; CDK10/L2 IC50 (nM), independent experiment 2) was 520 nM and the IC50 (CDK10/Cyclin L2; IC50 for CDK/cyclin complexes, CDK10/L2, live HEK-293, 2 h, mean ± S.E.M. (n=3) or mean (n=2)) was 520 nM. It also gave an inhibition at 10 µM (CDK10/Cyclin L2; average of experiments) of 88%, an inhibition at 10 µM (CDK10/Cyclin L2; independent experiment 1) of 81.7% and an inhibition at 10 µM (CDK10/Cyclin L2; independent experiment 2) of 94.4%.
